Columns and labels:
DENV-2 strain 16681 = test: DENV-2 inhibition (cytopathic effect inhibition) using Viral ToxGlo assay in A549 cells; format: cell-based, Dengue 2 virus; conditions: Dengue virus, DENV2, 120 h, compounds at 10 μM, MOI 0.5, 5 days p.i., read-out: % DENV-2 Inhibition Mean (n = 3)
Protocol: Protocol for Screening Antiviral Compounds for DENV-2 Inhibition and Cytotoxicity Using Viral ToxGlo Assay
A549 cells were maintained in Dulbecco's Modified Eagle Medium (DMEM) supplemented with 10% fetal bovine serum, 100 U/ml penicillin and 100 μg/ml streptomycin. For the purposes of the screening assay they were grown to 90% confluency, trypsinized and recovered. The trypsin was neutralised with cell culture media and cells were centrifuged at 150×g for 5 minutes before discarding the supernatant and resuspending cell pellet in assay media (DMEM supplemented with 2% fetal bovine serum and 100 U/ml penicillin and 100 μg/ml streptomycin). The cells were seeded into 96-well white clear-bottomed cell culture plates at a density of 1.0×10^4 cells/well in 50 μl. For the media/background control column assay media only was added. Cell plates were placed in a humid chamber and incubated overnight at 37° C./5% CO2. After overnight incubation cells were checked for confluency and healthy appearance.
Test compounds were prepared at a final concentration of 10 μM in a maximum DMSO concentration of 1% (final assay concentration maximal 0.1% DMSO) and added to the cell plates in volumes of 10 μl. For cell control and virus control wells the test article solvent only was added. As a positive inhibition control, 7-Deaza-2′-C-methyladenosine was added at 100 μM in 3 wells. Virus (DENV-2 strain 16681) or assay media for cytotoxicity test wells and media/cell control wells was added immediately after test articles at an MOI of 0.5, 40 for 96 well plates respectively. Virus suspension was prepared by thawing DENV-2 frozen stocks and diluting to the required concentration of plaque forming units in assay media.
Cell plates were further incubated inside a humid chamber for 5 days p.i at 37° C./5% CO2. After the incubation period cells were observed under the microscope to check for characteristic cytopathic effect in virus control wells and healthy cells in the cell control wells. After plates were adjusted to room temperature 20 μl Viral ToxGlo (Promega) was added to each well of the 96-well cell plates. Plates were incubated at room temperature for 5 minutes before measuring the luminescence on a spectrophotometer (Envision, PerkinElmer).
DENV-2 inhibition was calculated as percentage of cytopathic effect inhibition relative to the virus control and cytotoxicity as percentage of cell survival relative to cell control wells.

RSV A2 = test: RSV inhibition (cytopathic effect inhibition) using Viral ToxGlo assay in HEp-2 cells; format: cell-based; conditions: human respiratory syncytial virus, RSV A2, MOI 0.5, HEp-2 cells, 72 h p.i.
Method in brief: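 HEp-2 cells in EMEM with 2% FBS were infected with RSV A2 at MOI 0.5 immediately after compound (≤1% DMSO) and incubated 72 h at 37 °C. Viral ToxGlo luminescence gave % cytopathic effect inhibition versus virus control, plus cytotoxicity versus cell control; EC50 derived from dose-response.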

SMILES | inhibition at 10 µM (DENV-2 strain 16681) [%] | EC50 (RSV A2) [nM]
CC(C)CCNC(=O)c1cccc(Nc2ccc(OCc3ccccn3)cc2C2CC2)c1 [Compound 61, 3-((2-cyclopropyl-4-(pyridin-2-ylmethoxy)phenyl)amino)-N-isopentylbenzamide] | 55 | 54
O=C(NCCC1CCCC1)c1cccc(Nc2ccc(OCc3ccccc3)cc2C2CC2)c1 [Compound 82, N-(2-(cyclopentyl)ethyl)-3-((2-cyclopropyl-4-(phenylmethoxy)phenyl)amino)benzamide] | 64 | 4
O=C(CCC1CCCCC1)Nc1cccc(Nc2ccc(OCc3ccccc3)cc2C(F)(F)F)c1 [Compound 98, N-(3-{[4-(benzyloxy)-2-(trifluoromethyl)phenyl]amino}phenyl)-3-cyclohexylpropanamide] | 60 | 12
CC(C)c1cc(OCc2ccccc2)ccc1Nc1cccc(OCCCC2CCCCC2)c1 [Compound 119, 4-(benzyloxy)-N-[3-(3-cyclohexylpropoxy)phenyl]-2-(propan-2-yl)aniline] | 104 | 107
Cc1cc(OCc2ccc(F)cc2)ccc1Nc1ccc(F)c(NC(=O)CCC2CCCCC2)c1 [Compound 121, 3-cyclohexyl-N-[2-fluoro-5-({4-[(4-fluorophenyl)methoxy]-2-methylphenyl}amino)phenyl]propanamide] | 59 | 116
Cc1cc(OCc2ccccc2)ccc1Nc1cccc(NC(=O)CCC2CCCCC2)c1 [Compound 132, N-(3-{[4-(benzyloxy)-2-methylphenyl]amino}phenyl)-3-cyclohexylpropanamide] | 71 | 228
Cc1cc(OCc2ccc(F)cc2)ccc1Nc1cccc(NC(=O)CCC2CCCCC2)c1 [Compound 140, 3-cyclohexyl-N-[3-({4-[(4-fluorophenyl)methoxy]-2-methylphenyl}amino)phenyl]propanamide] | 74 | 349
O=C(CCC1CCCCC1)Nc1cccc(Nc2ccc(OCc3ccccc3)cc2F)c1 [Compound 150, N-(3-{[4-(benzyloxy)-2-fluorophenyl]amino}phenyl)-3-cyclohexylpropanamide] | 78 | 597
c1ccc(COc2ccc(Nc3cccc(OC4COC4)c3)c(C3CC3)c2)nc1 [Compound 151, 2-cyclopropyl-N-[3-(oxetan-3-yloxy)phenyl]-4-[(pyridin-2-yl)methoxy]aniline] | 63 | 671
CN(c1cccc(OCCCC2CCCCC2)c1)c1ccc(OCc2ccccn2)cc1C1CC1 [Compound 156, N-[3-(3-cyclohexylpropoxy)phenyl]-2-cyclopropyl-N-methyl-4-[(pyridin-2-yl)methoxy]aniline] | 82 | 1060

Reference: patent US12421206B2, “Aryl-n-aryl derivatives for treating a RNA virus infection” (ABIVAX, priority 2018, dated 2025)
